PubChem BioAssay AID330 (DTP/NCI, 2004)
Where “and” joins values, the source holds several entries; their conditions need not be identical. Equal values may be shown once. Inconclusive results and toxic doses are left out. The calls were made as follows: active = survival T/C of 150% or more; inactive = T/C below 125% in these data.

Tested on: P388 leukemia ip, CD2F1 mice, survival T/C
Experiment: NCI In Vivo Anticancer Drug Screen. Data for tumor model P388 Leukemia (intraperitoneal) in CD2F1 (CDF1) mice
Conditions: endpoint: median survival time, higher = longer survival
Method in brief: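 Mice carrying the transplanted tumor received test compound or vehicle. Survival was recorded in each group, and the value is the treated-group measurement divided by that of the vehicle-treated control group.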

[1] = dose: 60.0 mg/kg/injection, schedule: Q01DX005 (ip), vehicle: saline
[2] = dose: 100.0 mg/kg/injection, schedule: Q01DX009 (ip), vehicle: saline with Tween-80
[3] = dose: 200.0 mg/kg/injection, schedule: Q01DX009 (ip), vehicle: saline with Tween-80
[4] = dose: 50.0 mg/kg/injection, schedule: Q01DX005 (ip), vehicle: Klucel (hydroxypropylcellulose) (HPC)
[5] = dose: 100.0 mg/kg/injection, schedule: Q01DX005 (ip), vehicle: Klucel (hydroxypropylcellulose) (HPC)
[6] = dose: 200.0 mg/kg/injection, schedule: Q01DX005 (ip), vehicle: Klucel (hydroxypropylcellulose) (HPC)
[7] = dose: 100.0 mg/kg/injection, schedule: Q04DX003 (ip), vehicle: saline
[8] = dose: 200.0 mg/kg/injection, schedule: Q04DX003 (ip), vehicle: saline
[9] = dose: 60.0 mg/kg/injection, schedule: Q01DX005 (ip), vehicle: saline with Tween-80
[10] = dose: 120.0 mg/kg/injection, schedule: Q01DX005 (ip), vehicle: saline with Tween-80
[11] = dose: 240.0 mg/kg/injection, schedule: Q01DX005 (ip), vehicle: saline with Tween-80
[12] = dose: 50.0 mg/kg/injection, schedule: Q01DX009 (ip), vehicle: Klucel (hydroxypropylcellulose) (HPC)
[13] = dose: 100.0 mg/kg/injection, schedule: Q01DX009 (ip), vehicle: Klucel (hydroxypropylcellulose) (HPC)
[14] = dose: 200.0 mg/kg/injection, schedule: Q01DX009 (ip), vehicle: Klucel (hydroxypropylcellulose) (HPC)
[15] = dose: 50.0 mg/kg/injection, schedule: Q01DX009 (ip), vehicle: saline with Tween-80

Measured: T/C

O=C(O)Cc1c(-c2ccccc2)nc(=S)[nH]c1-c1[nH]c(=S)nc(-c2ccccc2)c1CC(=O)O
inactive: [1] 111 % of control | dose: 120.0 mg/kg/injection, schedule: Q01DX005 (ip), vehicle: saline 106 % of control | dose: 240.0 mg/kg/injection, schedule: Q01DX005 (ip), vehicle: saline 96 % of control

Nc1cc(Cl)ccc1[N+](=O)[O-]
inactive: [2] 108 % of control | [3] 99 % of control | dose: 400.0 mg/kg/injection, schedule: Q01DX009 (ip), vehicle: saline with Tween-80 89 % of control

O=C(Nc1ccc([N+](=O)[O-])cc1)Nc1nncs1
inactive: dose: 12.5 mg/kg/injection, schedule: Q01DX009 (ip), vehicle: distilled water + Tween-80 100 % of control | dose: 25.0 mg/kg/injection, schedule: Q01DX009 (ip), vehicle: distilled water + Tween-80 107 % of control and 92 % of control | dose: 50.0 mg/kg/injection, schedule: Q01DX009 (ip), vehicle: distilled water + Tween-80 115 % of control and 119 % of control | dose: 100.0 mg/kg/injection, schedule: Q01DX009 (ip), vehicle: distilled water + Tween-80 119 % of control and 124 % of control | dose: 200.0 mg/kg/injection, schedule: Q01DX009 (ip), vehicle: distilled water + Tween-80 110 % of control

CC(=O)n1oc2ccc(Br)cc2c1=O
inactive: [4] 100 % of control | [5] 95 % of control | [6] 100 % of control

CC(C)C(OCc1ccccc1)C(=O)O (stereo not given)
inactive: dose: 50.0 mg/kg/injection, schedule: Q01DX009 (ip), vehicle: alcohol 88 % of control | dose: 100.0 mg/kg/injection, schedule: Q01DX009 (ip), vehicle: alcohol 98 % of control | dose: 200.0 mg/kg/injection, schedule: Q01DX009 (ip), vehicle: alcohol 104 % of control

O=C1OCC2C3C=CC(O3)C12 (stereo not given)
inactive: [7] 100 % of control | [8] 102 % of control

O=c1c(C(=Nc2ccccc2)c2ccccc2)c[nH]n1-c1ccccc1
inactive: [9] 105 % of control | [10] 105 % of control | [11] 105 % of control

NC(N)=N/N=C\c1ccnc2ccccc12
inactive: dose: 7.5 mg/kg/injection, schedule: Q01DX005 (ip), vehicle: saline 100 % of control | dose: 15.0 mg/kg/injection, schedule: Q01DX005 (ip), vehicle: saline 105 % of control | dose: 30.0 mg/kg/injection, schedule: Q01DX005 (ip), vehicle: saline 105 % of control | [1] 105 % of control

COC(=O)c1ncn(CC#N)n1
inactive: dose: 50.0 mg/kg/injection, schedule: Q01DX005 (ip), vehicle: saline 110 % of control | dose: 100.0 mg/kg/injection, schedule: Q01DX005 (ip), vehicle: saline 112 % of control | dose: 200.0 mg/kg/injection, schedule: Q01DX005 (ip), vehicle: saline 105 % of control

O=C(Nc1cccc(C(F)(F)F)c1)c1cc2cc(Br)ccc2oc1=O
inactive: dose: 60.0 mg/kg/injection, schedule: Q01DX005 (ip), vehicle: Klucel (hydroxypropylcellulose) (HPC) 102 % of control | dose: 120.0 mg/kg/injection, schedule: Q01DX005 (ip), vehicle: Klucel (hydroxypropylcellulose) (HPC) 96 % of control | dose: 240.0 mg/kg/injection, schedule: Q01DX005 (ip), vehicle: Klucel (hydroxypropylcellulose) (HPC) 92 % of control

Clc1ccc(N=Cc2cccs2)cc1
inactive: dose: 3.13 mg/kg/injection, schedule: Q01DX009 (ip), vehicle: saline with Tween-80 100 % of control | dose: 6.25 mg/kg/injection, schedule: Q01DX009 (ip), vehicle: saline with Tween-80 88 % of control | dose: 12.5 mg/kg/injection, schedule: Q01DX009 (ip), vehicle: saline with Tween-80 90 % of control | dose: 25.0 mg/kg/injection, schedule: Q01DX009 (ip), vehicle: saline with Tween-80 101 % of control | [12] 110 % of control | [13] 100 % of control | [14] 100 % of control

Cc1cc(C(=O)CSC(=S)SC(C)(C)C)ccc1Cl
inactive: [9] 100 % of control | [10] 96 % of control | [11] 90 % of control

CCCCCCCCCCCCCCCCCCCC(O)CCCCCCCCC (stereo not given)
inactive: dose: 15.0 mg/kg/injection, schedule: Q01DX005 (ip), vehicle: saline with Tween-80 102 % of control | dose: 30.0 mg/kg/injection, schedule: Q01DX005 (ip), vehicle: saline with Tween-80 94 % of control | [9] 87 % of control | [10] 86 % of control

O=C1CC2(CCCC2)C(=O)N1c1ccc(O)c(CN2CCCCC2)c1
inactive: [12] 99 % of control | [13] 104 % of control | [14] 98 % of control

COC(=O)NC1=CCC(C(C)(C)C)CC1 (stereo not given)
inactive: dose: 25.0 mg/kg/injection, schedule: Q01DX005 (ip), vehicle: Klucel (hydroxypropylcellulose) (HPC) 108 % of control | [4] 113 % of control | [5] 106 % of control | [6] 103 % of control

O=[N+]([O-])c1ccc(/C=C(/c2ccc([N+](=O)[O-])o2)S(=O)(=O)c2ccccc2)cc1
inactive: dose: 50.0 mg/kg/injection, schedule: Q01DX009 (ip), vehicle: suspension in saline 97 % of control | dose: 100.0 mg/kg/injection, schedule: Q01DX009 (ip), vehicle: suspension in saline 103 % of control | dose: 200.0 mg/kg/injection, schedule: Q01DX009 (ip), vehicle: suspension in saline 97 % of control

O=C1c2cc(F)ccc2OC2CCON12 (stereo not given)
inactive: dose: 100.0 mg/kg/injection, schedule: Q01DX001 (ip), vehicle: Klucel (hydroxypropylcellulose) (HPC) 97 % of control | dose: 200.0 mg/kg/injection, schedule: Q01DX001 (ip), vehicle: Klucel (hydroxypropylcellulose) (HPC) 97 % of control | dose: 400.0 mg/kg/injection, schedule: Q01DX001 (ip), vehicle: Klucel (hydroxypropylcellulose) (HPC) 103 % of control

C=C(C(=O)O)C(=O)O
inactive: dose: 50.0 mg/kg/injection, schedule: Q01DX009 (ip), vehicle: saline 105 % of control | dose: 50.0 mg/kg/injection, schedule: Q04DX003 (ip), vehicle: saline 115 % of control | dose: 100.0 mg/kg/injection, schedule: Q01DX009 (ip), vehicle: saline 110 % of control | [7] 105 % of control | [8] 115 % of control

COC(=O)n1c(=O)oc2c(Br)cc(Br)cc21
inactive: [4] 103 % of control | [5] 106 % of control | [6] 103 % of control

Cl/N=C(\Nc1ccccc1)c1ccccn1
inactive: [15] 105 % of control | [2] 96 % of control

Cc1ccc(N=Cc2ccc(C=Nc3ccc(C)cc3C)cc2)c(C)c1
inactive: [12] 92 % of control | [13] 91 % of control | [14] 97 % of control

CCCCCCCCCCCCCCCCCS(=O)S(=O)O (stereo not given)
inactive: [15] 113 % of control | [2] 118 % of control | dose: 100.0 mg/kg/injection, schedule: Q04DX003 (ip), vehicle: Klucel (hydroxypropylcellulose) (HPC) 100 % of control | [3] 122 % of control | dose: 200.0 mg/kg/injection, schedule: Q04DX003 (ip), vehicle: Klucel (hydroxypropylcellulose) (HPC) 109 % of control | dose: 400.0 mg/kg/injection, schedule: Q04DX003 (ip), vehicle: Klucel (hydroxypropylcellulose) (HPC) 113 % of control

CN1CCc2cc(O)c(O)cc2C1
inactive: [7] 98 % of control | [8] 103 % of control
